Assay results published in ChEMBL document CHEMBL4312025, “Synthesis, antiproliferative activity and DNA/RNA-binding properties of mono- and bis-(1,2,3-triazolyl)-appended benzimidazo[1,2-a]quinoline derivatives” (Eur J Med Chem, 2020).
Active and inactive are the calls of the source. No cut-off for these calls is given here.

Columns and labels:
Calf thymus DNA [1] = test: Binding affinity to calf thymus dsDNA assessed as binding constant in sodium cacodylate buffer at pH 7 by fluorescence spectroscopy; assay type: nucleic-acid assay; conditions: Bos taurus
MCF7 = test: Growth inhibition of human MCF7 cells incubated for 72 hrs by MTT assay; assay type: functional; conditions: MCF7, 72 h
HCT-116 [2] = test: Cytotoxicity against human HCT116 cells assessed as induction of massive cell death at 5 uM incubated for 24 to 48 hrs; assay type: functional, cell-based
Calf thymus DNA [3] = test: Binding affinity to calf thymus dsDNA assessed as stabilization of mixed DNA base pairs in sodium cacodylate buffer at pH 7 at compound:polynucleotide concentration ratio of 0.2 by thermal denaturation assay; assay type: nucleic-acid assay; conditions: Bos taurus
[4] = Drug uptake in cytoplasm of human H460 cells assessed as perinuclear reticular staining at 1 uM incubated for 15 mins by fluorescence microscopy; assay type: ADME, cell-based; conditions: nci-h460, 0.25 h
Calf thymus DNA [5] = test: Binding affinity to calf thymus dsDNA assessed as ratio for bound compound to polynucleotide in sodium cacodylate buffer at pH 7 by fluorescence spectroscopy based Scatchard analysis; assay type: nucleic-acid assay; conditions: Bos taurus
HCT-116 [6] = test: Cell cycle arrest in human HCT116 cells at 0.5 to 1 uM incubated for 24 and 48 hrs by propidium iodide staining based flow cytometry; assay type: functional
[7] = Selectivity index, ratio of GI50 for human HaCaT cells to GI50 for human HCT116 cells incubated for 72 hrs by MTT assay; assay type: toxicity; conditions: HaCaT cells and HCT116 cells, read-out: RatioGI50
[8] = system: Poly(dA-dU)oligonucleotide; test: Binding affinity to polyA-polyU dsRNA (unknown origin) assessed as stabilization of polynucleotide in sodium cacodylate buffer at pH 7 at compound:polynucleotide concentration ratio of 0.1 to 0.2 by thermal denaturation assay; assay type: nucleic-acid assay
Calf thymus DNA [9] = test: Binding affinity to calf thymus dsDNA assessed as change in melting temperature in sodium cacodylate buffer at pH 7 at compound:polynucleotide concentration ratio of 0.2 by thermal denaturation assay; assay type: nucleic-acid assay; conditions: Bos taurus
[10] = Solubility of the compound in 0.05 M sodium cacodylate buffer with <0.01% DMSO upto 1X10'-5 mol/dm3 by UV/Visible spectra analysis; assay type: physicochemical
[11] = system: Poly(dA-dU)oligonucleotide; test: Binding affinity to polyA-polyU dsRNA (unknown origin) assessed as biphasic thermal denaturation transitions in sodium cacodylate buffer at pH 7 at compound:polynucleotide concentration ratio of 0.1 by thermal denaturation assay; assay type: nucleic-acid assay
Calf thymus DNA [12] = test: Binding affinity to calf thymus dsDNA assessed as ratio for fluorescence intensity of compound to fluorescence intensity for compound-polynucleotide complex in sodium cacodylate buffer at pH 7 by fluorescence spectroscopy based Scatchard method; assay type: nucleic-acid assay; conditions: Bos taurus
HCT-116 [13] = test: Growth inhibition of human HCT116 cells incubated for 72 hrs by MTT assay; assay type: functional; conditions: HCT-116, 72 h
[14] = system: Poly(dA-dU)oligonucleotide; test: Binding affinity to polyA-polyU dsRNA (unknown origin) assessed as decrease in emission intensity of the compound in sodium cacodylate buffer at pH 7 at 1X10'-6 mol/dm3 by fluorescence spectroscopy; assay type: nucleic-acid assay
[15] = system: Poly(dA-dU)oligonucleotide; test: Binding affinity to polyA-polyU dsRNA (unknown origin) assessed as binding constant in sodium cacodylate buffer at pH 7 by fluorescence spectroscopy; assay type: nucleic-acid assay
Calf thymus DNA [16] = test: Binding affinity to calf thymus ds-DNA assessed as decrease in emission intensity of the compound in sodium cacodylate buffer at pH 7 at 1X10'-6 mol/dm3 by fluorescence spectroscopy; assay type: nucleic-acid assay; conditions: Bos taurus
[17] = system: Poly(dA-dU)oligonucleotide; test: Binding affinity to polyA-polyU dsRNA (unknown origin) assessed as ratio for bound compound to polynucleotide in sodium cacodylate buffer at pH 7 by fluorescence spectroscopy based Scatchard method; assay type: nucleic-acid assay
Calf thymus DNA [18] = test: Binding affinity to calf thymus dsDNA assessed as intercalating activity by measuring decrease in CD spectra of polynucleotides in sodium cacodylate buffer at pH 7 at compound:polynucleotide concentration ratio of 0.1 to 0.3 by CD spectroscopy; assay type: nucleic-acid assay; conditions: Bos taurus
[19] = Growth inhibition of human HaCaT cells incubated for 72 hrs by MTT assay; assay type: cell-based
[20] = system: Poly(dA-dU)oligonucleotide; test: Binding affinity to polyA-polyU dsRNA (unknown origin) assessed as biphasic thermal denaturation transitions in sodium cacodylate buffer at pH 7 at compound:polynucleotide concentration ratio of 0.2 by thermal denaturation assay; assay type: nucleic-acid assay
[21] = system: Poly(dA-dU)oligonucleotide; test: Binding affinity to polyA-polyU dsRNA (unknown origin) assessed as intercalating activity by measuring decrease in CD spectra of polynucleotides in sodium cacodylate buffer at pH 7 at compound:polynucleotide concentration ratio of 0.1 to 0.4 by CD spectroscopy; assay type: nucleic-acid assay
NCI-H460 = test: Growth inhibition of human H460 cells incubated for 72 hrs by MTT assay; assay type: functional; conditions: NCI-H460, 72 h
Calf thymus DNA [22] = test: Binding affinity to calf thymus dsDNA assessed as intercalating activity by measuring weak negative ICD band between 300 and 330 nm in sodium cacodylate buffer at pH 7 at compound:polynucleotide concentration ratio of 0.1 to 0.3 by CD spectroscopy; assay type: nucleic-acid assay; conditions: Bos taurus
[23] = system: Poly(dA-dU)oligonucleotide; test: Binding affinity to polyA-polyU dsRNA (unknown origin) assessed as ratio for fluorescence intensity of compound to fluorescence intensity for compound-polynucleotide complex in sodium cacodylate buffer at pH 7 by fluorescence spectroscopy based Scatchard method; assay type: nucleic-acid assay
[24] = Drug uptake in nucleus of human H460 cells at 1 uM incubated for 15 mins by fluorescence microscopy; assay type: ADME, cell-based; conditions: nci-h460, 0.25 h

With `N#Cc1c(-n2cc(CCCCl)nn2)c2ccc(F)cc2n2c1nc1ccccc12` as the compound, how does the log Ks (Calf thymus DNA [1]) read?
Its log Ks is 5.2.

What about the GI50 (MCF7) of the same compound?
The GI50 was 2 µM.

And the Activity (HCT-116 [2])?
Its Activity is “Active”.

And the Activity (Calf thymus DNA [3])?
Its Activity is “inactive”.

What about the Drug uptake [4] of the same compound?
The Drug uptake was “Active”.

And the Ratio (Calf thymus DNA [5])?
The Ratio was 0.1.

And the Activity (HCT-116 [6])?
The Activity was “Active”.

What about the selectivity ratio at 72 h [7] of the same compound?
Its selectivity ratio at 72 h is > 7.

And the Activity [8]?
Its Activity is “Active”.

And the ΔTm (Calf thymus DNA [9])?
Its ΔTm is 0.5 °C.

What about the solubility [10] of the same compound?
Its solubility is “Soluble”.

And the ΔTm [11]?
Its ΔTm is 0.7 to 16.6 °C.

What about the Ratio (Calf thymus DNA [12]) of the same compound?
The Ratio was 0.5.

And the GI50 (HCT-116 [13])?
The GI50 was 0.5 µM.

What about the Activity [14] of the same compound?
Its Activity is “Active”.

And the log Ks [15]?
The log Ks was 5.9.

What about the Activity (Calf thymus DNA [16]) of the same compound?
Its Activity is “Active”.

And the Ratio [17]?
Its Ratio is 0.1.

What about the Activity (Calf thymus DNA [18]) of the same compound?
The Activity was “Active”.

What about the GI50 at 72 h [19] of the same compound?
Its GI50 at 72 h is 3.5 µM.

What about the ΔTm [20] of the same compound?
The ΔTm was 0.7 to 20.7 °C.

What about the Activity [21] of the same compound?
Its Activity is “Active”.

And the GI50 (NCI-H460)?
The GI50 was 0.7 µM.

And the Activity (Calf thymus DNA [22])?
Its Activity is “Active”.

And the Ratio [23]?
The Ratio was 0.4.

What about the Drug uptake [24] of the same compound?
The Drug uptake was “Not Active”.
